pIC50: −log10 of the molar value. Calls of active or inactive are those of the source. No cut-off for these calls is given here.

The test system of one assay is PC-3. The experiment in a line: Cytotoxicity against human PC-3 cells assessed as reduction in cell viability after 96 hrs by MTT assay. It counts as functional, cell-based. The note with it: PC-3, 96 h. On the technique in general: Tetrazolium assays rely on reduction of a dye to a coloured formazan, in cell work by metabolically active cells.
The test system of assay [1] is HL-60. As to the kind of experiment: Antiproliferative activity against human HL-60 cells assessed as cell growth inhibition after 72 hrs by trypan blue staining based cell counting assay. The format is functional. The note with it: HL-60, 72 h.
Assay [2] concerns HL-60. The experiment in a line: Induction of apoptosis in human HL-60 cells assessed as increase in accumulation at sub-G1 phase at 0.5 uM after 24 hrs by propidium iodide staining based flow cytometry (reference value: 2.72 %). The format is functional.
Assay [3] concerns HL-60. As to the kind of experiment: Induction of apoptosis in human HL-60 cells assessed as increase in accumulation at sub-G1 phase at 1 uM after 24 hrs by propidium iodide staining based flow cytometry (reference value: 2.72 %). It counts as functional. In general terms: A flow cytometer gives signals particle by particle.
For assay [4], the system named is HL-60. The experiment in a line: Induction of apoptosis in human HL-60 cells assessed as increase in accumulation at sub-G1 phase at 2 uM after 24 hrs by propidium iodide staining based flow cytometry (reference value: 2.72 %). The format is functional.
Assay [5] concerns HL-60. As to the kind of experiment: Induction of apoptosis in human HL-60 cells assessed as live cells at 0.5 uM measured after 24 hrs by Annexin-V/FITC and propidium iodide staining based flow cytometry (reference value: 89.29 %). The format is functional.
Assay [6] concerns HL-60. The experiment in a line: Induction of apoptosis in human HL-60 cells assessed as early apoptotic cells at 0.5 uM measured after 24 hrs by Annexin-V/FITC and propidium iodide staining based flow cytometry (reference value: 2.46 %). The format is functional.
In assay [7] the test system is HL-60. The experiment in a line: Induction of apoptosis in human HL-60 cells assessed as late apoptotic cells at 0.5 uM measured after 24 hrs by Annexin-V/FITC and propidium iodide staining based flow cytometry (reference value: 7.24 %). The format is functional.
Assay [8] concerns HL-60. As to the kind of experiment: Induction of apoptosis in human HL-60 cells assessed as necrotic cells at 0.5 uM measured after 24 hrs by Annexin-V/FITC and propidium iodide staining based flow cytometry (reference value: 1.01 %). It counts as functional.
The subject of assay [9] is HL-60. As to the kind of experiment: Induction of apoptosis in human HL-60 cells assessed as live cells at 1 uM measured after 24 hrs by Annexin-V/FITC and propidium iodide staining based flow cytometry (reference value: 89.29 %). The format is functional.
Assay [10] deals with HL-60. As to the kind of experiment: Induction of apoptosis in human HL-60 cells assessed as early apoptotic cells at 1 uM measured after 24 hrs by Annexin-V/FITC and propidium iodide staining based flow cytometry (reference value: 2.46 %). The format is functional.
Assay [11] relates to HL-60. The experiment in a line: Induction of apoptosis in human HL-60 cells assessed as late apoptotic cells at 1 uM measured after 24 hrs by Annexin-V/FITC and propidium iodide staining based flow cytometry (reference value: 7.24 %). It counts as functional.
Assay [12] has as its system HL-60. The experiment in a line: Induction of apoptosis in human HL-60 cells assessed as necrotic cells at 1 uM measured after 24 hrs by Annexin-V/FITC and propidium iodide staining based flow cytometry (reference value: 1.01 %). It counts as functional.
Assay [13] deals with HL-60. As to the kind of experiment: Induction of apoptosis in human HL-60 cells assessed as live cells at 2 uM measured after 24 hrs by Annexin-V/FITC and propidium iodide staining based flow cytometry (reference value: 89.29 %). The format is functional.
Assay [14] deals with HL-60. As to the kind of experiment: Induction of apoptosis in human HL-60 cells assessed as early apoptotic cells at 2 uM measured after 24 hrs by Annexin-V/FITC and propidium iodide staining based flow cytometry (reference value: 2.46 %). The format is functional.
Assay [15] concerns HL-60. As to the kind of experiment: Induction of apoptosis in human HL-60 cells assessed as late apoptotic cells at 2 uM measured after 24 hrs by Annexin-V/FITC and propidium iodide staining based flow cytometry (reference value: 7.24 %). The format is functional.
Assay [16] concerns HL-60. As to the kind of experiment: Induction of apoptosis in human HL-60 cells assessed as necrotic cells at 2 uM measured after 24 hrs by Annexin-V/FITC and propidium iodide staining based flow cytometry (reference value: 1.01 %). It counts as functional.
Assay [17] has as its system HL-60. As to the kind of experiment: Upregulation of acetylated H3 level in human HL-60 cells at 2 uM measured after 12 hrs by Western blot analysis. It counts as functional, cell-based. On the technique in general: In western blotting, separated proteins are transferred to a membrane and probed.
The test system of assay [18] is HL-60. As to the kind of experiment: Upregulation of acetylated alpha-tubulin level in human HL-60 cells at 2 uM measured after 12 hrs by Western blot analysis. The format is functional, cell-based.

One may read the pIC50 as the IC50 on a negative log10 scale, so that one unit is a factor of ten. With `CC1(C)[C@@H](O)CC[C@]2(C)[C@H]3C(=O)C=C4[C@@H]5C[C@@](C)(C(=O)OCCOc6ccc(NC(=O)CCCCCCC(=O)NO)cc6)CC[C@]5(C)CC[C@@]4(C)[C@]3(C)CC[C@@H]12`, the values for the pIC50 with PC-3 and in the assay on HL-60 [1] were 5.07 and 5.35, respectively.

As to `COC(=O)[C@@]1(C)CC[C@]2(C)CC[C@]3(C)C(=CC(=O)[C@@H]4[C@@]5(C)C=C(C#N)C(=O)C(C)(C)[C@@H]5CC[C@]43C)[C@@H]2C1`, the negative-log IC50 (pIC50) in the assay on PC-3 was 5.77; with HL-60 [1], 5.87. For the same compound, the Activity in the assay with HL-60 [2] worked out at 2.91%; in the assay with HL-60 [3], 3.57%; with HL-60 [4] it was 19.18%; with HL-60 [5], 87.34%; in the assay on HL-60 [6], 1.77%; in the assay with HL-60 [7], 9%. The Activity in the assay with HL-60 [8] was 1.89%; in the assay on HL-60 [9] it was 81.11%; in the assay on HL-60 [10], 3.27%; in the assay on HL-60 [11], 13.31%; in the assay on HL-60 [12], 2.31%; with HL-60 [13] it was 77.42%. The figures for the Activity with HL-60 [14], in the assay with HL-60 [15] and with HL-60 [16] were 2.52%, 16.96% and 3.1%, respectively. Besides, the result with HL-60 [17] was inactive.

`CC1(C)[C@@H](O)CC[C@]2(C)[C@H]3C(=O)C=C4[C@@H]5C[C@@](C)(C(=O)OCCCOc6ccc(NC(=O)CCCCCC(=O)NO)cc6)CC[C@]5(C)CC[C@@]4(C)[C@]3(C)CC[C@@H]12`: the pIC50 was 5.37 with PC-3 and 5.79 in the assay with HL-60 [1].

On to `CC1(C)[C@@H](O)CC[C@]2(C)[C@H]3C(=O)C=C4[C@@H]5C[C@@](C)(C(=O)OCCOc6ccc(NC(=O)CCCCCC(=O)NO)cc6)CC[C@]5(C)CC[C@@]4(C)[C@]3(C)CC[C@@H]12`, for which the pIC50 in the assay on PC-3 was 5.43; in the assay on HL-60 [1], 5.55.

With `CC1(C)[C@@H](O)CC[C@]2(C)[C@H]3C(=O)C=C4[C@@H]5C[C@@](C)(C(=O)NCCCC(=O)NO)CC[C@]5(C)CC[C@@]4(C)[C@]3(C)CC[C@@H]12`, the pIC50 with PC-3 was 4.60; with HL-60 [1], 4.67.

With `CC1(C)[C@@H](O)CC[C@]2(C)[C@H]3C(=O)C=C4[C@@H]5C[C@@](C)(C(=O)OCCOc6ccc(NC(=O)CCCCC(=O)NO)cc6)CC[C@]5(C)CC[C@@]4(C)[C@]3(C)CC[C@@H]12`, the negative-log IC50 (pIC50) in the assay with PC-3 is 5.09; with HL-60 [1], 5.68.

In the case of `CC1(C)[C@@H](O)CC[C@]2(C)[C@H]3C(=O)C=C4[C@@H]5C[C@@](C)(C(=O)N6CCN(c7ccc(NC(=O)CCCCCCC(=O)NO)cc7)CC6)CC[C@]5(C)CC[C@@]4(C)[C@]3(C)CC[C@@H]12`, the negative-log IC50 (pIC50) with PC-3 is 5.61; in the assay with HL-60 [1], 6.14.

With `CC1(C)[C@@H](O)CC[C@]2(C)[C@H]3C(=O)C=C4[C@@H]5C[C@@](C)(C(=O)OCCCOc6ccc(NC(=O)CCCCC(=O)NO)cc6)CC[C@]5(C)CC[C@@]4(C)[C@]3(C)CC[C@@H]12`, the values for the pIC50 in the assay on PC-3 and with HL-60 [1] were 5.40 and 5.85, respectively.

In the case of `CC1(C)[C@@H](O)CC[C@]2(C)[C@H]3C(=O)C=C4[C@@H]5C[C@@](C)(C(=O)OCCCOc6ccc(NC(=O)CCCC(=O)NO)cc6)CC[C@]5(C)CC[C@@]4(C)[C@]3(C)CC[C@@H]12`, the results for the pIC50 in the assay on PC-3 and in the assay with HL-60 [1] were 5.35 and 5.87, respectively.

For `O=C(CCCCCCC(=O)Nc1ccccc1)NO` [VORINOSTAT], the Activity in the assay on HL-60 [2] is reported as 2.07%; in the assay with HL-60 [3], 5.34%; with HL-60 [4], 43.31%; in the assay with HL-60 [5] it was 86.69%; in the assay with HL-60 [6], 2.41%; in the assay on HL-60 [7], 8.95%. Further, the Activity worked out at 1.94% with HL-60 [8]; 82.27% in the assay on HL-60 [9]; 2.42% in the assay on HL-60 [10]; 12.96% with HL-60 [11]; 2.36% in the assay on HL-60 [12]; 49.4% in the assay with HL-60 [13]. Further, the Activity in the assay with HL-60 [14] is 5.02%; in the assay with HL-60 [15], 39.71%; in the assay on HL-60 [16], 5.87%. Besides, the outcome in the assay with HL-60 [17] and with HL-60 [18] was Active.

Take `CC1(C)[C@@H](O)CC[C@]2(C)[C@H]3C(=O)C=C4[C@@H]5C[C@@](C)(C(=O)NCCCCCC(=O)NO)CC[C@]5(C)CC[C@@]4(C)[C@]3(C)CC[C@@H]12`: the pIC50 in the assay on PC-3 was 4.87; in the assay on HL-60 [1], 5.06.

`CC1(C)[C@@H](O)CC[C@]2(C)[C@H]3C(=O)C=C4[C@@H]5C[C@@](C)(C(=O)O)CC[C@]5(C)CC[C@@]4(C)[C@]3(C)CC[C@@H]12` [ENOXOLONE]: the negative logarithm of the IC50 (pIC50) with PC-3 is 3.98; with HL-60 [1] it was 4.26.

For the compound `CC1(C)[C@@H](O)CC[C@]2(C)[C@H]3C(=O)C=C4[C@@H]5C[C@@](C)(C(=O)NCCCCCCC(=O)NO)CC[C@]5(C)CC[C@@]4(C)[C@]3(C)CC[C@@H]12`, the pIC50 in the assay with PC-3 is 4.93; in the assay with HL-60 [1], 5.02.

Regarding `CC1(C)[C@@H](O)CC[C@]2(C)[C@H]3C(=O)C=C4[C@@H]5C[C@@](C)(C(=O)OCCOc6ccc(NC(=O)CCCC(=O)NO)cc6)CC[C@]5(C)CC[C@@]4(C)[C@]3(C)CC[C@@H]12`, the pIC50 is 5.16 in the assay with PC-3 and 5.82 in the assay on HL-60 [1].

`CC1(C)[C@@H](O)CC[C@]2(C)[C@H]3C(=O)C=C4[C@@H]5C[C@@](C)(C(=O)OCCCOc6ccc(NC(=O)CCCCCCC(=O)NO)cc6)CC[C@]5(C)CC[C@@]4(C)[C@]3(C)CC[C@@H]12`: the negative logarithm of the IC50 (pIC50) in the assay with PC-3 is 5.27; with HL-60 [1] it was 5.56.

For the compound `CC1(C)[C@@H](O)CC[C@]2(C)[C@H]3C(=O)C=C4[C@@H]5C[C@@](C)(C(=O)NCCCCC(=O)NO)CC[C@]5(C)CC[C@@]4(C)[C@]3(C)CC[C@@H]12`, the values for the pIC50 in the assay on PC-3 and with HL-60 [1] were 4.73 and 4.81, respectively.

As to `CC1(C)[C@@H](O)CC[C@]2(C)[C@H]3C(=O)C=C4[C@@H]5C[C@@](C)(C(=O)N6CCN(c7ccc(NC(=O)CCCCCC(=O)NO)cc7)CC6)CC[C@]5(C)CC[C@@]4(C)[C@]3(C)CC[C@@H]12`, the negative-log IC50 (pIC50) is 5.51 with PC-3 and 5.75 with HL-60 [1].

Take `CC1(C)[C@@H](O)CC[C@]2(C)[C@H]3C(=O)C=C4[C@@H]5C[C@@](C)(C(=O)N6CCN(c7ccc(NC(=O)CCCC(=O)NO)cc7)CC6)CC[C@]5(C)CC[C@@]4(C)[C@]3(C)CC[C@@H]12`: the figures for the pIC50 in the assay on PC-3 and in the assay with HL-60 [1] were 4.93 and 5.32, respectively.

Turning to `CC1(C)[C@@H](O)CC[C@]2(C)[C@H]3C(=O)C=C4[C@@H]5C[C@@](C)(C(=O)N6CCN(c7ccc(NC(=O)CCCCC(=O)NO)cc7)CC6)CC[C@]5(C)CC[C@@]4(C)[C@]3(C)CC[C@@H]12`, the pIC50 is 5.26 in the assay with PC-3 and 5.47 with HL-60 [1].

The values above are taken from ChEMBL document CHEMBL4680138, “A 18β-glycyrrhetinic acid conjugate with Vorinostat degrades HDAC3 and HDAC6 with improved antitumor effects” (Eur J Med Chem, 2020).
